Data reported in patent US6737383B1, “Herbicidal oxadiazolidines” (priority 1999, dated 2004).

Tests used:
bedstraw = experiment: Test B pre/postemergence bedstraw; type: in vivo, Galium aparine
Outline: (§1)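 Response is a visual 0-to-10 score relative to untreated plants, where 0 means no effect and 10 means complete control, taken twelve to sixteen days after application. Treatments went onto soil at planting and onto foliage of 1- to 4-leaf plants, using a surfactant-containing non-phytotoxic solvent.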

blackgrass = experiment: Test B pre/postemergence blackgrass; type: in vivo, Alopecurus myosuroides
Outline: as §1

surinam grass = experiment: Test B pre/postemergence surinam grass; type: in vivo, Brachiaria decumbens
Outline: as §1

smallflower flatsedge = experiment: Test B flood test smallflower flatsedge; type: in vivo, Cyperus difformis; conditions: for Plant response rating, S. Flatsedge (0 to 10 scale, 0 is no effect, 10 is complete control) / S. Flatsedge plant response rating (0 to 10 scale, 0 is no effect, 10 is complete control): visual evaluation after twelve to sixteen days; for S. Flatsedge plant response rating (0 to 10 scale, 0 is no effect, 10 is complete control): under heading Pre-emergence
Outline: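 Plants were grown to the 2-leaf stage before treatment with test chemical, then held in a greenhouse for twelve to sixteen days. Injury was visually rated against untreated controls on a 0–10 scale, where 0 is no effect and 10 is complete control.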

[1] = Postemergence, Rate 250 g/ha, scale 0 to 10, 0 no effect, 10 complete control
[2] = Postemergence, Rate 1000 g/ha, scale 0 to 10 (0 no effect, 10 complete control)
[3] = Preemergence, Rate 125 g/ha, scale 0 to 10 (0 no effect, 10 complete control)
[4] = Preemergence, Rate 250 g/ha, scale of 0 to 10 where 0 is no effect and 10 is complete control
[5] = Preemergence, Rate 500 g/ha, scale 0 (no effect) to 10 (complete control)
[6] = Rate 125 g/ha, Postemergence, scale 0 to 10, 0 no effect, 10 complete control
[7] = Rate 500 g/ha, Postemergence, 0 to 10 scale (0 no effect, 10 complete control)
[8] = Rate 1000 g/ha, Preemergence, scale 0 to 10 (0 no effect, 10 complete control)
[9] = Rate 125 g/ha, Postemergence section (flood test species), scale 0 to 10, 0 no effect, 10 complete control
[10] = flood test, listed under Postemergence, Rate 250 g/ha, scale 0 to 10, 0 no effect, 10 complete control
[11] = Postemergence, Rate 250 g/ha, scale 0 to 10
[12] = Postemergence, Rate 500 g/ha, scale of 0 to 10 where 0 is no effect and 10 is complete control
[13] = Preemergence, Rate 62 g/ha, scale of 0 to 10 where 0 is no effect and 10 is complete control
[14] = Preemergence, Rate 500 g/ha, scale 0 to 10, 0 is no effect, 10 is complete control
[15] = Rate 62 g/ha, Postemergence, scale 0 to 10 (0 no effect, 10 complete control)
[16] = Rate 125 g/ha, Postemergence, scale 0 to 10, 0 is no effect, 10 is complete control
[17] = Preemergence, Rate 125 g/ha, scale of 0 to 10 where 0 is no effect and 10 is complete control
[18] = Preemergence, Rate 250 g/ha, scale 0 to 10, 0 is no effect, 10 is complete control
[19] = Rate 62 g/ha, flood test species, Pre-emergence
[20] = Rate 125 g/ha, flood test species
[21] = Rate 250 g/ha, Pre-emergence (flood test species), scale 0 to 10, 0 is no effect, 10 is complete control
[22] = Rate 500 g/ha, Pre-emergence, flood test species, scale 0 to 10 (0 no effect, 10 complete control)
[23] = Postemergence, Rate 62 g/ha, scale 0 to 10, 0 is no effect, 10 is complete control
[24] = Preemergence, Rate 62 g/ha, scale 0 to 10, 0 is no effect, 10 is complete control
[25] = Postemergence, Rate 62 g/ha, scale of 0 to 10, 0 is no effect, 10 is complete control
[26] = Postemergence, Rate 125 g/ha, scale 0 to 10, 0 is no effect, 10 is complete control
[27] = Postemergence, Rate 500 g/ha, scale 0 to 10, 0 is no effect, 10 is complete control
[28] = Rate 250 g/ha, Postemergence, scale of 0 to 10 where 0 is no effect and 10 is complete control
[29] = Preemergence, Rate 125 g/ha, scale 0 to 10, 0 is no effect, 10 is complete control
[30] = Preemergence, Rate 125 g/ha, 0 is no effect, 10 is complete control
[31] = Preemergence, Rate 500 g/ha, scale of 0 to 10 where 0 is no effect and 10 is complete control
[32] = Rate 62 g/ha, Postemergence, scale of 0 to 10 where 0 is no effect and 10 is complete control
[33] = Rate 125 g/ha, Postemergence, scale 0 to 10
[34] = Rate 500 g/ha, Postemergence, scale 0 to 10

CC(C)N(C(=O)n1oc(=O)n(-c2ccc(OC(F)(F)F)cc2)c1=O)C1=CCOCC1 [Compound 13]
4: Blackgrass plant response rating (blackgrass; [7]) | B. signalgrass plant response rating (surinam grass; [5])
2: B. signalgrass plant response rating (surinam grass; [1]) | Plant response rating, B. signalgrass (surinam grass; [4])
0: Bedstraw plant response rating (bedstraw; [1]) | Bedstraw plant response rating (bedstraw; [2]) | Plant response rating, Bedstraw (bedstraw; [3]) | Plant response rating, Bedstraw (bedstraw; [4]) | Bedstraw plant response rating (bedstraw; [5]) | Bedstraw plant response rating (bedstraw; [6]) | Bedstraw plant response rating (bedstraw; [7]) | Plant response rating, Blackgrass (blackgrass; [3]) | Plant response rating, Blackgrass (blackgrass; [4]) | Blackgrass plant response rating (blackgrass; [6]) | Plant response rating, B. signalgrass (surinam grass; [3]) | B. signalgrass plant response rating (surinam grass; [6]) | S. Flatsedge plant response rating (smallflower flatsedge; [2]) | S. Flatsedge plant response rating (smallflower flatsedge; [9]) | S. Flatsedge plant response rating (smallflower flatsedge; [10])
6: Blackgrass plant response rating (blackgrass; [5]) | B. signalgrass plant response rating (surinam grass; [2])
8: Blackgrass plant response rating (blackgrass; [2]) | Plant response rating, B. signalgrass (surinam grass; [8])
3: Plant response rating, Bedstraw (bedstraw; [8]) | Blackgrass plant response rating (blackgrass; [1])
5: B. signalgrass plant response rating (surinam grass; [7])
9: Plant response rating, Blackgrass (blackgrass; [8])

CC(C)N(C(=O)n1oc(=O)n(CCCl)c1=O)c1ccc(Cl)cc1 [Compound 474]
7: Blackgrass plant response rating (blackgrass; [15]) | B. signalgrass plant response rating (surinam grass; [18]) | B. signalgrass plant response rating (surinam grass; [14])
1: B. signalgrass plant response rating (surinam grass; [1]) | B. signalgrass plant response rating (surinam grass; [16])
4: Blackgrass plant response rating (blackgrass; [18]) | B. signalgrass plant response rating (surinam grass; [12])
9: Blackgrass plant response rating (blackgrass; [14])
6: Bedstraw plant response rating (bedstraw; [15]) | Bedstraw plant response rating (bedstraw; [16])
2: Plant response rating, B. signalgrass (surinam grass; [17])
8: Bedstraw plant response rating (bedstraw; [11]) | Bedstraw plant response rating (bedstraw; [12]) | Blackgrass plant response rating (blackgrass; [11]) | Blackgrass plant response rating (blackgrass; [12])
3: Plant response rating, Blackgrass (blackgrass; [13]) | Plant response rating, Blackgrass (blackgrass; [17])
0: Plant response rating, Bedstraw (bedstraw; [13]) | Bedstraw plant response rating (bedstraw; [14]) | Plant response rating, B. signalgrass (surinam grass; [13]) | B. signalgrass plant response rating (surinam grass; [15]) | Plant response rating, S. Flatsedge (0 to 10 scale, 0 is no effect, 10 is complete control) (smallflower flatsedge; [19]) | S. Flatsedge plant response rating (0 to 10 scale, 0 is no effect, 10 is complete control) (smallflower flatsedge; [20]) | S. Flatsedge plant response rating (smallflower flatsedge; [21]) | S. Flatsedge plant response rating (smallflower flatsedge; [22])

Cc1ccccc1-n1c(=O)on(C(=O)N(C2=CCOCC2)C(C)C)c1=O [Compound 10]
8: Plant response rating, Blackgrass (blackgrass; [4]) | Plant response rating, B. signalgrass (surinam grass; [4]) | B. signalgrass plant response rating (surinam grass; [5])
4: Blackgrass plant response rating (blackgrass; [1]) | Plant response rating, Blackgrass (blackgrass; [3]) | B. signalgrass plant response rating (surinam grass; [1]) | B. signalgrass plant response rating (surinam grass; [7])
0: Bedstraw plant response rating (bedstraw; [23]) | Bedstraw plant response rating (bedstraw; [1]) | Plant response rating, Bedstraw (bedstraw; [24]) | Plant response rating, Bedstraw (bedstraw; [3]) | Plant response rating, Bedstraw (bedstraw; [4]) | Bedstraw plant response rating (bedstraw; [5]) | Bedstraw plant response rating (bedstraw; [6]) | Bedstraw plant response rating (bedstraw; [7]) | Blackgrass plant response rating (blackgrass; [23]) | Blackgrass plant response rating (blackgrass; [6]) | B. signalgrass plant response rating (surinam grass; [23]) | Plant response rating, B. signalgrass (surinam grass; [24]) | B. signalgrass plant response rating (surinam grass; [6]) | S. Flatsedge plant response rating (smallflower flatsedge; [23]) | S. Flatsedge plant response rating (smallflower flatsedge; [9]) | S. Flatsedge plant response rating (smallflower flatsedge; [10])
9: Blackgrass plant response rating (blackgrass; [5])
1: Plant response rating, Blackgrass (blackgrass; [24])
7: Blackgrass plant response rating (blackgrass; [7])
5: Plant response rating, B. signalgrass (surinam grass; [3])

CC(C)N(C(=O)n1oc(=O)n(CCC2OCCO2)c1=O)c1ccc(Cl)cc1 [Compound 531]
6: Plant response rating, Blackgrass (blackgrass; [27])
2: Plant response rating, Blackgrass (blackgrass; [13]) | Plant response rating, B. signalgrass (surinam grass; [13]) | B. signalgrass plant response rating (surinam grass; [29]) | B. signalgrass plant response rating (0 to 10 scale, 0 is no effect, 10 is complete control) (surinam grass; Preemergence, Rate 250 g/ha)
0: Bedstraw plant response rating (bedstraw; [25]) | Bedstraw plant response rating (bedstraw; [26]) | Plant response rating, Bedstraw (bedstraw; [13]) | Bedstraw plant response rating (0 to 10 scale) (bedstraw; Preemergence, Rate 250 g/ha) | Plant response rating, Bedstraw (bedstraw; [28]) | Blackgrass plant response rating (blackgrass; [25]) | Blackgrass plant response rating (blackgrass; [26]) | Plant response rating, Blackgrass (blackgrass; [28]) | B. signalgrass plant response rating (surinam grass; [25]) | B. signalgrass plant response rating (surinam grass; [26]) | Plant response rating, B. signalgrass (surinam grass; [28]) | Plant response rating, S. Flatsedge (0 to 10 scale, 0 is no effect, 10 is complete control) (smallflower flatsedge; [19]) | S. Flatsedge plant response rating (0 to 10 scale, 0 is no effect, 10 is complete control) (smallflower flatsedge; [20]) | S. Flatsedge plant response rating (smallflower flatsedge; [21]) | S. Flatsedge plant response rating (smallflower flatsedge; Rate 500 g/ha, Pre-emergence section of Table B, 0 to 10 scale (0 no effect, 10 complete control))
9: Blackgrass plant response rating (blackgrass; [29]) | Blackgrass plant response rating (0 to 10 scale) (blackgrass; Preemergence, Rate 250 g/ha)
4: Plant response rating, B. signalgrass (surinam grass; [27])
3: Plant response rating, Bedstraw (bedstraw; [27])

CCC(CC)N(C(=O)n1oc(=O)n(-c2ccccc2C)c1=O)c1ccc(F)cc1 [Compound 193]
0: Bedstraw plant response rating (bedstraw; [13]) | Bedstraw plant response rating (0 to 10 scale) (bedstraw; [30]) | Bedstraw plant response rating (bedstraw; [18]) | Plant response rating, Bedstraw (bedstraw; [31]) | Bedstraw plant response rating (bedstraw; [32]) | Bedstraw plant response rating (bedstraw; [33]) | Plant response rating (0 to 10; 0 is no effect, 10 is complete control), Bedstraw (bedstraw; Rate 250 g/ha, Postemergence) | Bedstraw plant response rating (bedstraw; [34]) | Blackgrass plant response rating (blackgrass; [13]) | Blackgrass plant response rating (0 to 10 scale) (blackgrass; [30]) | Blackgrass plant response rating (blackgrass; [18]) | Plant response rating, Blackgrass (blackgrass; [31]) | Blackgrass plant response rating (blackgrass; [32]) | Blackgrass plant response rating (blackgrass; [33]) | Plant response rating (0 to 10; 0 is no effect, 10 is complete control), Blackgrass (blackgrass; Rate 250 g/ha, Postemergence) | Blackgrass plant response rating (blackgrass; [34]) | B. signalgrass plant response rating (surinam grass; [13]) | B. signalgrass plant response rating (0 to 10 scale) (surinam grass; [30]) | B. signalgrass plant response rating (surinam grass; [18]) | Plant response rating, B. signalgrass (surinam grass; [31]) | B. signalgrass plant response rating (surinam grass; [32]) | B. signalgrass plant response rating (surinam grass; Rate 125 g/ha, Postemergence, scale 0 (no effect) to 10 (complete control)) | Plant response rating, B. signalgrass (surinam grass; Rate 250 g/ha, Postemergence, scale 0 to 10, 0 is no effect, 10 is complete control) | B. signalgrass plant response rating (surinam grass; Rate 500 g/ha, Postemergence, scale 0 to 10, 0 no effect, 10 complete control) | S. Flatsedge plant response rating (smallflower flatsedge; Rate 62 g/ha, headed Pre-emergence (flood test species), scale 0 to 10 (0 no effect, 10 complete control)) | S. Flatsedge plant response rating (smallflower flatsedge; Rate 125 g/ha, Pre-emergence, flood test species, scale 0 to 10 where 0 is no effect and 10 is complete control) | S. Flatsedge plant response rating (smallflower flatsedge; Rate 250 g/ha, Pre-emergence, flood-test species, scale 0 to 10, 0 is no effect, 10 is complete control) | S. Flatsedge plant response rating (smallflower flatsedge; [22])
